This note sets out measurements from patent US20250195530A1, “POLQ INHIBITORS” (ASTRAZENECA AB, priority 2022, published 2025).

Molecules are shown by their SMILES. Like-named read-outs stand apart in the source and are kept apart here.

One assay deals with DLD-1 BRCA2−/− cells. Briefly: Homologous recombination synthetic lethal inhibition of proliferation, DLD-1 BRCA2-/- (Cell Titre Glo 3D). Type of assay: cell-based. The conditions noted are these: for IC50: Homo sapiens. A digest of the protocol: (§1)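 Wild-type DLD-1 serves as the control for non-specific toxicity, and BRCA2-null DLD-1 as the homologous-recombination-deficient line. Both grew with compound from 10 μM down to 0.51 nM, re-dosed after 6 days. Luminescent ATP content (CellTiter-Glo 3D) was read after 7 or 12 days, respectively, to give IC50 values.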

The test system of the next assay is DLD-1 cells. Description: Inhibition of proliferation, DLD-1 BRCA2 wt control (Cell Titre Glo 3D). Format: cell-based. The following applies: for IC50: Homo sapiens. A digest of the protocol:
as §1

The mark [1] stands for this setting: DLD-1, DLD-1 BRCA2 −/− cells, mean, read-out: POLQ PD Prolif Lumin BRCA2 −/− mean pIC50 (converted).
Setting [2] is: DLD-1, DLD1 BRCA2 wt cells, mean, read-out: POLQ PD Prolif Lumin DLD1 mean PIC50 (converted).
Setting [3] is: DLD-1, 288 h, DLD-1 BRCA2−/− cells, 12 days, read-out: POLQ PD Prolif Lumin BRCA2 −/− mean pIC50 (converted).
Where [4] appears, read: DLD-1, 168 h, DLD-1 BRCA2 wt cells, 7 days, read-out: POLQ PD Prolif Lumin DLD1 mean pIC50 (converted).
Setting [5] is: DLD-1, DLD-1 BRCA2 −/−, mean, read-out: POLQ PD Prolif Lumin BRCA2 −/− mean pIC50 (converted).
Where [6] appears, read: DLD-1, DLD1 BRCA2 wt, mean, read-out: POLQ PD Prolif Lumin DLD1 mean pIC50 (converted).

`CNCCCOc1ccc(-c2nc3c(OC4(C)CC4)ncnc3n2Cc2ncc(C)s2)c(Cl)c1` [Example T74, 3-(3-chloro-4-(6-(1-methylcyclopropoxy)-9-((5-methylthiazol-2-yl)methyl)-9H-purin-8-yl)phenoxy)-N-methylpropan-1-amine]: the IC50 was 501 nM in the assay with DLD-1 BRCA2−/− cells (setting [1]) and more than 10000 nM in the assay with DLD-1 cells (setting [2]).

In the case of `Cc1cnc(Cn2c(-c3ccc(OC4CCCN(C)CC4)cc3Cl)nc3c(OC4(C)CC4)ncnc32)s1` (single isomer, unassigned) [Example T389, 2-((8-(2-chloro-4-((1-methylazepan-4-yl)oxy)phenyl)-6-(1-methylcyclopropoxy)-9H-purin-9-yl)methyl)-5-methylthiazole], the IC50 is 316 nM in the assay with DLD-1 BRCA2−/− cells (DLD-1, first proliferation column (c5), taken as DLD-1 BRCA2-/-, read-out: POLQ PD Prolif Lumin (converted)) and more than 10000 nM in the assay on DLD-1 cells (DLD-1, second proliferation column (c6), taken as DLD-1 BRCA2 wt, read-out: POLQ PD Prolif Lumin (converted)).

Turning to `CC1(Oc2nccc3c2nc(-c2ccc(OCCN4CCNCC4)cc2Cl)n3Cc2cc(Cl)ccn2)CC1` [Example 16, 2-(2-chloro-4-(2-(piperazin-1-yl)ethoxy)phenyl)-1-((4-chloropyridin-2-yl)methyl)-4-(1-methylcyclopropoxy)-1H-imidazo[4,5-c]pyridine], the values for the IC50 in the assay on DLD-1 BRCA2−/− cells (setting [3]) and in the assay on DLD-1 cells (setting [4]) were 398 nM and more than 10000 nM, respectively.

As for `COc1ccc(Cl)cc1Cn1c(-c2ccc(OCCCC(C)(C)C(=O)O)cc2Cl)nc2c(OC3(C)CC3)ncnc21` [Example U47, 5-(3-chloro-4-(9-(5-chloro-2-methoxybenzyl)-6-(1-methylcyclopropoxy)-9H-purin-8-yl)phenoxy)-2,2-dimethylpentanoic acid], the IC50 is 31.6 nM in the assay with DLD-1 BRCA2−/− cells (setting [5]) and 6310 nM in the assay on DLD-1 cells (setting [6]).

In the case of `Cc1ccnc(Cn2c(-c3ccc(C(=O)N4CCC(F)CC4)cc3Cl)nc3c(OC4(C)CC4)ncnc32)c1` [Example T419, (3-chloro-4-(6-(1-methylcyclopropoxy)-9-((4-methylpyridin-2-yl)methyl)-9H-purin-8-yl)phenyl)(4-fluoropiperidin-1-yl)methanone], the IC50 in the assay with DLD-1 BRCA2−/− cells (DLD-1, proliferation, luminescence, taken as DLD-1 BRCA2-/-, read-out: POLQ PD Prolif Lumin (converted)) was 1000 nM; in the assay on DLD-1 cells (DLD-1, proliferation, luminescence, second Prolif column (c6), taken as DLD-1 BRCA2 wt control, read-out: POLQ PD Prolif Lumin (converted)), more than 10000 nM.

In the case of `C#Cc1cc(OCCN2CCN(C)CC2)ccc1-c1nc2c(OC3(C)CC3)ncnc2n1Cc1ccccc1` [Example H9, 9-benzyl-8-(2-ethynyl-4-(2-(4-methylpiperazin-1-yl)ethoxy)phenyl)-6-(1-methylcyclopropoxy)-9H-purine], the IC50 is 501 nM in the assay with DLD-1 BRCA2−/− cells (setting [3]) and 3980 nM with DLD-1 cells (setting [4]).

For the molecule `CC1(Oc2ncnc3c2nc(-c2cccc(OCCCCC(=O)O)c2Cl)n3Cc2cccc(Cl)c2)CC1` [Example T292, 5-(2-chloro-3-(9-(3-chlorobenzyl)-6-(1-methylcyclopropoxy)-9H-purin-8-yl)phenoxy)pentanoic acid], the IC50 was 31.6 nM with DLD-1 BRCA2−/− cells (DLD-1, DLD-1 BRCA2-/- proliferation, column head only partly shown, read-out: POLQ PD Prolif Lumin (converted)) and more than 10000 nM in the assay with DLD-1 cells (DLD-1, DLD-1 BRCA2 wt control proliferation, column head only partly shown, read-out: POLQ PD Prolif Lumin (converted)).

On to `CN1CCN(CCOc2ccc(-c3nc4c(OC5(C)CC5)ncnc4n3Cc3ncccn3)c(Cl)c2)CC1` [Example E6, 8-(2-chloro-4-(2-(4-methylpiperazin-1-yl)ethoxy)phenyl)-6-(1-methylcyclopropoxy)-9-(pyrimidin-2-ylmethyl)-9H-purine], for which the IC50 with DLD-1 BRCA2−/− cells (setting [3]) was 1580 nM; in the assay on DLD-1 cells (setting [4]) it was more than 10000 nM.

`C[C@H](CCOc1ccc(-c2nc3c(OC4(C)CC4)ncnc3n2Cc2cc(Cl)ccc2F)c(Cl)c1)C(=O)O` [Example U10, (R)-4-(3-chloro-4-(9-(5-chloro-2-fluorobenzyl)-6-(1-methylcyclopropoxy)-9H-purin-8-yl)phenoxy)-2-methylbutanoic acid]: the IC50 is 63.1 nM in the assay with DLD-1 BRCA2−/− cells (setting [5]) and more than 10000 nM in the assay with DLD-1 cells (setting [6]).

Take `CC1(Oc2ncnc3c2nc(-c2ccc(OCCN4CC5(CNC(=O)C5)C4)cc2Cl)n3Cc2ccccc2)CC1` [Example R8, 2-(2-(4-(9-benzyl-6-(1-methylcyclopropoxy)-9H-purin-8-yl)-3-chlorophenoxy)ethyl)-2,6-diazaspiro[3.4]octan-7-one]: the IC50 in the assay with DLD-1 BRCA2−/− cells (setting [3]) was 251 nM; with DLD-1 cells (setting [4]), 3980 nM.

Regarding `CC1(Oc2ncnc3c2nc(-c2cccc(OCCC(=O)O)c2Cl)n3Cc2cccc(Cl)c2)CC1` [Example T89, 3-(2-chloro-3-(9-(3-chlorobenzyl)-6-(1-methylcyclopropoxy)-9H-purin-8-yl)phenoxy)propanoic acid], the figures for the IC50 in the assay with DLD-1 BRCA2−/− cells (setting [1]) and in the assay on DLD-1 cells (setting [2]) were 39.8 nM and more than 10000 nM, respectively.

With `Cc1ccnc(Cn2c(-c3ccc(OCCN4CCNCC4)cc3Cl)nc3c(OC(C)(C)C)cccc32)c1` [Example T609, 4-(tert-butoxy)-2-(2-chloro-4-(2-(piperazin-1-yl)ethoxy)phenyl)-1-((4-methylpyridin-2-yl)methyl)-1H-benzo[d]imidazole], the IC50 in the assay with DLD-1 BRCA2−/− cells (DLD-1, first proliferation column, DLD-1 BRCA2-/-, read-out: POLQ PD Prolif Lumin (converted)) is 1580 nM; with DLD-1 cells (DLD-1, second proliferation column, DLD-1 BRCA2 wt control, read-out: POLQ PD Prolif Lumin (converted)), more than 10000 nM.

`CC1(Oc2ccnc3c2nc(-c2ccc(OCCN4CCNCC4)cc2Cl)n3Cc2cc(Cl)ccn2)CC1` [Example 14, 2-(2-Chloro-4-(2-(piperazin-1-yl)ethoxy)phenyl)-3-((4-chloropyridin-2-yl)methyl)-7-(1-methylcyclopropoxy)-3H-imidazo[4,5-b]pyridine]: the values for the IC50 in the assay with DLD-1 BRCA2−/− cells (setting [3]) and with DLD-1 cells (setting [4]) were 251 nM and more than 10000 nM, respectively.

In the case of `CC1(Oc2ncnc3c2nc(-c2ccc(OCCN4CCNCC4)cc2Cl)n3Cc2cc(C3CC3)ccn2)CC1` [Example S3, 8-(2-chloro-4-(2-(piperazin-1-yl)ethoxy)phenyl)-9-((4-cyclopropylpyridin-2-yl)methyl)-6-(1-methylcyclopropoxy)-9H-purine], the IC50 in the assay on DLD-1 BRCA2−/− cells (setting [3]) was 794 nM; in the assay with DLD-1 cells (setting [4]), more than 10000 nM.

In the case of `Cc1ccnc(Cn2c(-c3ccc(N4CC[C@@H](O)C4=O)cc3Cl)nc3c(OC4(C)CC4)ncnc32)c1` [Example T181, (R)-1-(3-chloro-4-(6-(1-methylcyclopropoxy)-9-((4-methylpyridin-2-yl)methyl)-9H-purin-8-yl)phenyl)-3-hydroxypyrrolidin-2-one], the IC50 with DLD-1 BRCA2−/− cells (DLD-1, first proliferation column (c5), DLD-1 BRCA2-/-, read-out: POLQ PD Prolif Lumin (converted)) was 316 nM; with DLD-1 cells (DLD-1, second proliferation column (c6), DLD-1 BRCA2 wt control, read-out: POLQ PD Prolif Lumin (converted)) it was more than 10000 nM.

`Cc1cc(OC[C@H]2CNCCO2)ncc1-c1nc2c(OC3(C)CC3)ncnc2n1Cc1ccccc1` [Example G15, (R)-2-(((5-(9-benzyl-6-(1-methylcyclopropoxy)-9H-purin-8-yl)-4-methylpyridin-2-yl)oxy)methyl)morpholine]: the results for the IC50 in the assay on DLD-1 BRCA2−/− cells (setting [3]) and with DLD-1 cells (setting [4]) were 398 nM and more than 10000 nM, respectively.

As for `Cc1cc(OCCN2CCN(C)CC2)ccc1-c1nc2c(OC3(C)CC3)ncnc2n1Cc1ccccc1` [Example C1, 9-benzyl-8-(2-methyl-4-(2-(4-methylpiperazin-1-yl)ethoxy)phenyl)-6-(1-methylcyclopropoxy)-9H-purine], the IC50 with DLD-1 BRCA2−/− cells (setting [3]) is 100 nM; in the assay on DLD-1 cells (setting [4]), 5010 nM.

Turning to `C[C@H]1C(=O)NCCN1CCOc1ccc(-c2nc3c(OC4(C)CC4)ncnc3n2Cc2ccccc2)c(Cl)c1` [Example H19, (S)-4-(2-(4-(9-benzyl-6-(1-methylcyclopropoxy)-9H-purin-8-yl)-3-chlorophenoxy)ethyl)-3-methylpiperazin-2-one], the IC50 in the assay with DLD-1 BRCA2−/− cells (setting [3]) is 63.1 nM; in the assay on DLD-1 cells (setting [4]) it was more than 10000 nM.

With `CN1CCCC1CCOc1ccc(-c2nc3c(OC4(C)CC4)ncnc3n2Cc2ccccc2)c(Cl)c1` (single isomer, unassigned) [Example D4, 9-benzyl-8-(2-chloro-4-(2-(1-methylpyrrolidin-2-yl)ethoxy)phenyl)-6-(1-methylcyclopropoxy)-9H-purine], in the assay with DLD-1 BRCA2−/− cells (DLD-1 BRCA2−/− cells, 12 days), the “POLQ PD Prolif Lumin BRCA2 −/− mean pIC50” value was found to be 7.3. Further, the “POLQ PD Prolif Lumin DLD1 mean pIC50” value in the assay on DLD-1 cells (DLD-1 BRCA2 wt cells, 7 days) is 6.2.

For the molecule `Cc1cc(N2CCNCC2)ncc1-c1nc2c(OC3(C)CC3)ncnc2n1Cc1ccccc1` [Example C5, 9-benzyl-8-(4-methyl-6-(piperazin-1-yl)pyridin-3-yl)-6-(1-methylcyclopropoxy)-9H-purine], the figures for the IC50 in the assay on DLD-1 BRCA2−/− cells (setting [3]) and in the assay on DLD-1 cells (setting [4]) were 316 nM and more than 10000 nM, respectively.
